Experimental data published in patent publication EP3952873B1 (priority 2019, dated 2020).
“Also recorded” adds a separate entry of the source.

Experiments:
in vivo = assay: in vivo; set-up: species or system mice; settings: male, C57BL/6JRj, mouse, ip, 10 mg/kg
Procedure: To evaluate the ability of pro-JON-11 (10) and JON-11 to penetrate the blood-brain barrier, a brain-to-plasma distribution ratio (B/P ratio) was obtained. All subjects were male C57BL/6JRj mice (24-26 g, Janvier Labs, France) housed in groups of three-four with ad libitum access to food and water. The mice were maintained under diurnal conditions (12-h light/dark cycle with lights on at 7 AM) in a temperature (22±1 °C) and humidity-controlled room (50±10%). Ethical permission for the procedures used in this in vivo study was granted by the Danish Animal Experiments Inspectorate.
Compounds were dissolved in PEG-400 (Sigma) at 20% of the final required volume. The final volume was then made up by 10% (w/v) hydroxypropyl-beta-cyclodextrin (Sigma Aldrich) in sterile saline. The solution was sonicated for 5 min. The JON-11 solution was pH-adjusted to 7.4 with 0.2% 2M NaOH.
Both compounds were injected i.p. at a dose of 10 mg/kg (n=3 for each compound). […] After 30 min, the animals were sacrificed by decapitation, trunk blood was collected in EDTA-coated tubes and the brain was gently removed. Blood and tissues were temporarily stored on ice until plasma and brain homogenate preparation. Blood plasma was separated from cells by centrifugation for 10 min at 1,500 x g at 4 °C and plasma harvested. […]
Plasma and brain exposure of JON-11 and pro-JON-11 were evaluated in male mice. […]

recombinant CaMK2a = biological target: T1, recombinant CaMK2a (Rattus norvegicus, UniProt P11275); assay: [3H]HOCPCA binding to recombinant CaMK2a expressed in HEK293T cells
T1 construct: host or cells: HEK293T
Procedure: Protein concentration was determined using the Bradford protein assay. […] The dried filters were added scintillation liquid and radioactivity measured on a Tricarb 2100 Scintillation counter (Packard).

DTA mouse model = DTA mouse model of narcolepsy (EEG/EMG, cataplexy); type: in vivo; settings: after 8-11 days of chronic administration, 100 mg/kg i.p.
Procedure: Using the DTA mouse model (Tabuchi et al., 2014) we determined changes in sleep-wake EEG/EMG patterns (including cataplexy) at different time points (1 day and 8-11 days) under the influence of JON-11. After drug cessation day 14, EEG/EMG changes were mapped up to day 33. Under anesthesia with isoflurane (2% to 2.5% in O2) electrodes were placed in the scull and neck muscles of the mice. After 5-10 days recovery the electrodes are connected to a recording system, and EEG/EMG signals are recorded with synchronised video recordings. From the data, sleep/wake parameters and cataplexy episodes are scored and calculated. Analyses were performed by an observer blinded to the treatment groups.

GABAB(1b,2) receptors = biological target: T2, GABAB(1b,2) receptors (Homo sapiens, UniProt Q9UBS5); assay: GABAB functional assay in CHO cells; type: cell-based; settings: CHO cells stably expressing GABAB(1b,2), concentrations up to 300 µM
T2 construct: expressed in transfected cells
Description: To assess affinity of JON-11 for the GABAB receptor, we employed a GABAB binding assay using rat brain synaptic membranes (Wellendorph et al., 2005). […] B) JON-11 was further assessed for functional activity using CHO cells stably expressing GABAB(1b,2) receptors (Rajalu et al., 2015).

T2 sequence (Q9UBS5 1-844 isoform Q9UBS5-2): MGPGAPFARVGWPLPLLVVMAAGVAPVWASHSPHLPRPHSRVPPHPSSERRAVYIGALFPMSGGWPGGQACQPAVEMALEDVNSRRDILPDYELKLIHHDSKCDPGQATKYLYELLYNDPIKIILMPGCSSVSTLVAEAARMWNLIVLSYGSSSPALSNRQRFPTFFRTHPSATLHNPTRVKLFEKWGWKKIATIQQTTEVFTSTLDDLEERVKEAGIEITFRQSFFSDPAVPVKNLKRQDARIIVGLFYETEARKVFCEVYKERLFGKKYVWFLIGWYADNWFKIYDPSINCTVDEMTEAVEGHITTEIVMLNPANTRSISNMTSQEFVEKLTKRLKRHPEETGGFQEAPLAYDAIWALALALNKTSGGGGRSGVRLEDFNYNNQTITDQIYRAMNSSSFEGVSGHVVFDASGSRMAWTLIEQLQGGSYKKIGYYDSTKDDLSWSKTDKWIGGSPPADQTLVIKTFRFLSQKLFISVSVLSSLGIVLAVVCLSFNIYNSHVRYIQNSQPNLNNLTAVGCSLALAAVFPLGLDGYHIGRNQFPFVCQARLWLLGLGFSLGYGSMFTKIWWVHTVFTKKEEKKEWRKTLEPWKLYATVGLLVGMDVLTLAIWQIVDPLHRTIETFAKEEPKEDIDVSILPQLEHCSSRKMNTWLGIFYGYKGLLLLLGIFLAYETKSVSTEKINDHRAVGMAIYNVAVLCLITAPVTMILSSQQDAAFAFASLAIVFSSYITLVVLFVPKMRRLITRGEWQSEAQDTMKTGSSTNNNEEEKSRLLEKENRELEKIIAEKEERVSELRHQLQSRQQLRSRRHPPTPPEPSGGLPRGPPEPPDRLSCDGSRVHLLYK
T2 sequence (O75899 42-941 partner): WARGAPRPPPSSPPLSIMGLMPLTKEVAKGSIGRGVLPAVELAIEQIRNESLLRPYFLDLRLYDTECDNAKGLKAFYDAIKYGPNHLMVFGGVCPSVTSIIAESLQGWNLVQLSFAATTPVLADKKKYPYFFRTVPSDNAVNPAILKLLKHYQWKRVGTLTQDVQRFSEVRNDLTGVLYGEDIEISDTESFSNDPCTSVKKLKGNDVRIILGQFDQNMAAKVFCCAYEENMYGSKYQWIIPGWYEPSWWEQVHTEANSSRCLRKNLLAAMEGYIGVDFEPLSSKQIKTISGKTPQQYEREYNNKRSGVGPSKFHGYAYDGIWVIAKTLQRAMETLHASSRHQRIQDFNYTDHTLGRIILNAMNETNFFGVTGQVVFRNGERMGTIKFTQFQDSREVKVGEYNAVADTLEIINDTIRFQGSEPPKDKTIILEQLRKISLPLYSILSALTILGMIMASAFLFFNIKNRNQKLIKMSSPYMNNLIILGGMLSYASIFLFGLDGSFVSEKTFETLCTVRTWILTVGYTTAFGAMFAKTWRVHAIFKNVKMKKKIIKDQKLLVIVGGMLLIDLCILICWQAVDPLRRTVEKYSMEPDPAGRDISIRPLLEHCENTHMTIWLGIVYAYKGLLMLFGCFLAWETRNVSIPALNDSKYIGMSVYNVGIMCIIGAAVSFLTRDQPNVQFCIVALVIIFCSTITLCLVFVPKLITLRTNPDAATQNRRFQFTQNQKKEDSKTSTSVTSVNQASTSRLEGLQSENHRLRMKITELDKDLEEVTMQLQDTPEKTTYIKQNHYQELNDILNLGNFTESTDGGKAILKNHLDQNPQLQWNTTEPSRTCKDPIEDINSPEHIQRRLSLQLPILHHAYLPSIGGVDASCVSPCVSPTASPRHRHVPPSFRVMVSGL
T1 sequence (P11275 whole entry): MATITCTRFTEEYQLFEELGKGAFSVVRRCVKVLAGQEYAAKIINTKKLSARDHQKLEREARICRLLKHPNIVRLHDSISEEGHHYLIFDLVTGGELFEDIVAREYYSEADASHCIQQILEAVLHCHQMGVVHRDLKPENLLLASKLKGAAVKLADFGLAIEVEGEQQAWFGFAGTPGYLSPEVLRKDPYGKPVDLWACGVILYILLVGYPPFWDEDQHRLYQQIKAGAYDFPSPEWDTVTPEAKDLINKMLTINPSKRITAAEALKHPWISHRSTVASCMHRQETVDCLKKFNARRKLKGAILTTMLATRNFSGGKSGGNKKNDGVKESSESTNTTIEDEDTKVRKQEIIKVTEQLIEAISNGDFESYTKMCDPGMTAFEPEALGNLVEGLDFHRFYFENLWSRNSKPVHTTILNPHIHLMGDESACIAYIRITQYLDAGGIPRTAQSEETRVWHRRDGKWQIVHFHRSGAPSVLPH

O=C(O)Cc1cn2nc(-c3ccc(Cl)cc3)ccc2n1 [JON-11, 2-(6-(4-Chlorophenyl)imidazo[1,2-b]pyridazin-2-yl)acetic acid]
Kp at 30 min (in vivo): 0.05 | Ki (recombinant CaMK2a; 5 nM [3H]HOCPCA, whole cell lysates of CaMK2a-transfected HEK293T cells): 3.5 µM | higher affinity compared to GHB (recombinant CaMK2a; ratio of Ki values, [3H]HOCPCA binding): 14 x | number of cataplexy attacks (DTA mouse model): significantly decreases | agonistic activity at recombinant GABAB receptors (GABAB(1b,2) receptors): not a GABAB agonist; also recorded: Lack of agonistic activity
